Patent publication US4542137A, “Alkylaminodesoxy-1.4;3.6-dianhydrohexitol nitrates substituted by purine bases and pharmaceutical compositions” (priority 1980, dated 1985)

Tested on: mongrel dogs
Experiment: circulatory pharmacological effectiveness on narcotised dogs, intravenous
Type: in vivo, dog
[1] = dog i.v. ISDN/9c 1, 1d 0.5 mg/kg, 40 min
[2] = dog i.v. ISDN/9c 1, 1d 0.5 mg/kg, 50 min
[3] = dog i.v. ISDN/9c 1, 1d 0.5 mg/kg, 60 min
[4] = dog i.v. ISDN/9c 1, 1d 0.5 mg/kg, 90 min
[5] = dog i.v. ISDN/9c 1, 1d 0.5 mg/kg, 120 min
[6] = dog i.v. ISDN/9c 1, 1d 0.5 mg/kg, 150 min
[7] = dog i.v. ISDN/9c 1, 1d 0.5 mg/kg, 180 min
[8] = dog i.v., before administration (v)

Cn1c(=O)c2c(ncn2CCCN[C@H]2CO[C@H]3[C@@H]2OC[C@@H]3O[N+](=O)[O-])n(C)c1=O [Example 1d, 5-(3-Theophyllin-7-ylpropyl)-amino-5-desoxy-1.4;3.6-dianhydro-L-iditol 2-nitrate]
BFFem: blood flow in the A. femoralis referred to 20 kg body weight [1]: 58.5 mL/min
HF: heart frequency [1]: 97.5
HLL: heart capacity left, referred to 20 kg body weight [1]: 0.43 W
HLR: heart capacity right, referred to 20 kg body weight [1]: 50.8 mW
HZV: heart minute volume, referred to 20 kg body weight [1]: 2.05 L/min
SV: beat volume, referred to 20 kg body weight [1]: 21.5 mL
WAP: pulmonalis resistance, referred to 20 kg body weight [1]: 0.50 U
WFem: moralis resistance, referred to 20 kg body weight [1]: 0.25 KU
WTP: total peripheral resistance, referred to 20 kg body weight [1]: 6.62 U
dp/dt: rate of pressure increase in the left ventricle [1]: 2193.7 mm.Hg/sec
APdiast: diastolic aorta pressure [2]: 85.9 mm.Hg
APsyst: systolic aorta pressure [2]: 135.9 mm.Hg
BFFem: blood flow in the A. femoralis referred to 20 kg body weight [2]: 62.2 mL/min
HF: heart frequency [2]: 96.2
HLL: heart capacity left, referred to 20 kg body weight [2]: 0.41 W
HLR: heart capacity right, referred to 20 kg body weight [2]: 47.3 mW
HZV: heart minute volume, referred to 20 kg body weight [2]: 1.93 L/min
SV: beat volume, referred to 20 kg body weight [2]: 20.5 mL
WAP: pulmonalis resistance, referred to 20 kg body weight [2]: 0.50 U
WFem: moralis resistance, referred to 20 kg body weight [2]: 0.25 KU
WTP: total peripheral resistance, referred to 20 kg body weight [2]: 7.24 U
dp/dt: rate of pressure increase in the left ventricle [2]: 2006.2 mm.Hg/sec
APdiast: diastolic aorta pressure [3]: 88.5 mm.Hg
APsyst: systolic aorta pressure [3]: 136.8 mm.Hg
BFFem: blood flow in the A. femoralis referred to 20 kg body weight [3]: 62.6 mL/min
HF: heart frequency [3]: 95.5
HLL: heart capacity left, referred to 20 kg body weight [3]: 0.39 W
HLR: heart capacity right, referred to 20 kg body weight [3]: 46.0 mW
HZV: heart minute volume, referred to 20 kg body weight [3]: 1.82 L/min
LVEDP: end diastolic pressure in the left ventricle [3]: 8.06 mm.Hg
SV: beat volume, referred to 20 kg body weight [3]: 19.4 mL
WAP: pulmonalis resistance, referred to 20 kg body weight [3]: 0.46 U
WFem: moralis resistance, referred to 20 kg body weight [3]: 0.26 KU
WTP: total peripheral resistance, referred to 20 kg body weight [3]: 7.90 U
dp/dt: rate of pressure increase in the left ventricle [3]: 1968.7 mm.Hg/sec
APdiast: diastolic aorta pressure [4]: 92.8 mm.Hg
APsyst: systolic aorta pressure [4]: 137.8 mm.Hg
BFFem: blood flow in the A. femoralis referred to 20 kg body weight [4]: 57.4 mL/min
HF: heart frequency [4]: 92.5
HLL: heart capacity left, referred to 20 kg body weight [4]: 0.34 W
HLR: heart capacity right, referred to 20 kg body weight [4]: 36.7 mW
HZV: heart minute volume, referred to 20 kg body weight [4]: 1.57 L/min
LVEDP: end diastolic pressure in the left ventricle [4]: 9.47 mm.Hg
SV: beat volume, referred to 20 kg body weight [4]: 17.4 mL
WAP: pulmonalis resistance, referred to 20 kg body weight [4]: 0.39 U
WFem: moralis resistance, referred to 20 kg body weight [4]: 0.29 KU
WTP: total peripheral resistance, referred to 20 kg body weight [4]: 9.39 U
dp/dt: rate of pressure increase in the left ventricle [4]: 1743.7 mm.Hg/sec
APdiast: diastolic aorta pressure [5]: 95.2 mm.Hg
APsyst: systolic aorta pressure [5]: 139.7 mm.Hg
BFFem: blood flow in the A. femoralis referred to 20 kg body weight [5]: 49.9 mL/min
HF: heart frequency [5]: 96.5
HLL: heart capacity left, referred to 20 kg body weight [5]: 0.35 W
HLR: heart capacity right, referred to 20 kg body weight [5]: 34.9 mW
HZV: heart minute volume, referred to 20 kg body weight [5]: 1.57 L/min
LVEDP: end diastolic pressure in the left ventricle [5]: 9.47 mm.Hg
SV: beat volume, referred to 20 kg body weight [5]: 17.0 mL
WAP: pulmonalis resistance, referred to 20 kg body weight [5]: 0.35 U
WFem: moralis resistance, referred to 20 kg body weight [5]: 0.36 KU
WTP: total peripheral resistance, referred to 20 kg body weight [5]: 9.56 U
dp/dt: rate of pressure increase in the left ventricle [5]: 1659.4 mm.Hg/sec
APdiast: diastolic aorta pressure [6]: 92.8 mm.Hg
APsyst: systolic aorta pressure [6]: 139.7 mm.Hg
BFFem: blood flow in the A. femoralis referred to 20 kg body weight [6]: 49.5 mL/min
HF: heart frequency [6]: 104.5
HLL: heart capacity left, referred to 20 kg body weight [6]: 0.35 W
HLR: heart capacity right, referred to 20 kg body weight [6]: 36.9 mW
HZV: heart minute volume, referred to 20 kg body weight [6]: 1.61 L/min
LVEDP: end diastolic pressure in the left ventricle [6]: 10.12 mm.Hg
SV: beat volume, referred to 20 kg body weight [6]: 15.9 mL
WAP: pulmonalis resistance, referred to 20 kg body weight [6]: 0.37 U
WFem: moralis resistance, referred to 20 kg body weight [6]: 0.37 KU
WTP: total peripheral resistance, referred to 20 kg body weight [6]: 8.10 U
dp/dt: rate of pressure increase in the left ventricle [6]: 1640.6 mm.Hg/sec
APdiast: diastolic aorta pressure [7]: 90.9 mm.Hg
APsyst: systolic aorta pressure [7]: 137.8 mm.Hg
BFFem: blood flow in the A. femoralis referred to 20 kg body weight [7]: 50.9 mL/min
HF: heart frequency [7]: 114.0
HLL: heart capacity left, referred to 20 kg body weight [7]: 0.37 W
HLR: heart capacity right, referred to 20 kg body weight [7]: 38.3 mW
HZV: heart minute volume, referred to 20 kg body weight [7]: 1.73 L/min
LVEDP: end diastolic pressure in the left ventricle [7]: 10.5 mm.Hg
SV: beat volume, referred to 20 kg body weight [7]: 15.5 mL
WAP: pulmonalis resistance, referred to 20 kg body weight [7]: 0.32 U
WFem: moralis resistance, referred to 20 kg body weight [7]: 0.32 KU
WTP: total peripheral resistance, referred to 20 kg body weight [7]: 8.13 U
dp/dt: rate of pressure increase in the left ventricle [7]: 1621.9 mm.Hg/sec
APdiast: diastolic aorta pressure [8]: 76.9 mm.Hg
APsyst: systolic aorta pressure [8]: 152.8 mm.Hg
BFFem: blood flow in the A. femoralis referred to 20 kg body weight [8]: 51.5 mL/min
HF: heart frequency [8]: 101.2
HLL: heart capacity left, referred to 20 kg body weight [8]: 0.50 W
HLR: heart capacity right, referred to 20 kg body weight [8]: 67.1 mW
HZV: heart minute volume, referred to 20 kg body weight [8]: 2.35 L/min
LVEDP: end diastolic pressure in the left ventricle [8]: 7.50 mm.Hg
PAP: average pressure in the A. pulmonalis [8]: 15.59 mm.Hg
SV: beat volume, referred to 20 kg body weight [8]: 23.4 mL
WAP: pulmonalis resistance, referred to 20 kg body weight [8]: 0.46 U
WFem: moralis resistance, referred to 20 kg body weight [8]: 0.29 KU
WTP: total peripheral resistance, referred to 20 kg body weight [8]: 5.78 U
dp/dt: rate of pressure increase in the left ventricle [8]: 1903.1 mm.Hg/sec
PRV: pressure in the right atrium (dog, in vivo, iv): 3.09
HF: heart frequency (iv, 0.5 mg/kg): 103.7
dp/dt: rate of pressure increase in the left ventricle (iv, 0.5 mg/kg): 2306.2 mm.Hg/sec
